14 compounds from patent publication US20140357688A1, “METHOD FOR INHIBITING EZH2 EXPRESSION IN BREAST CANCER CELLS” (Yung Shin Pharm. Ind. Co., Ltd., priority 2013, published 2014) can be followed below.

Peptide text beside a SMILES is read from it. * marks the point of attachment. Cbz = O=C(OCc1ccccc1)*

What all share (format): cell-based, human
Assay [1] deals with EZH2. The assay can be described thus: Western blot of EZH2 protein expression in MDA-MB-468 cells. As to conditions: for effect of inhibitor on YC-1-induced EZH2 inhibition: inhibitor pretreatment, then 3 μM YC-1 for 6 h. The procedure: Cells were harvested and performed with western blotting analysis. […] The levels of protein expression were quantitated and shown under blots. (C) Cells were transfected with EZH2 shRNA for 0, 1, 2, 3, and 4 days and collected for determination of cell viability (left) and protein expression (right). (D)(E) After 4 days of EZH2 knockdown, cells were incubated with 3 μM YC-1 for 4 h and detected cell viability (D) and protein contents (E). (F) Tumor specimens were isolated and protein was extracted for western blot analysis.
Cells were lysed in PBS containing proteinase inhibitor and phosphatase inhibitors and sonication. Protein concentration was measured using the Bio-Rad protein assay kit (Bio-Rad Laboratories, Hercules, Calif., USA). Lysate protein was separated by electrophoresis of SDS-PAGE and transferred to Immobilon P membrane (EMD Millipore). The membranes were incubated with appropriate primary antibodies and horseradish peroxidase-conjugated secondary antibodies (EMD Millipore). The signaling was visualized using Chemiluminescence substrate kit (EMD Millipore) and collected by the Luminesence image analyzer, LAS4000 (Fuji Photo Film Co., Tokyo, Japan). The band intensities were analyzed and quantified by the Multi Gauge software (Fuji Photo Film).
A general note: Immunoblotting shows a protein as a band on a membrane.

Assay [2] relates to MDA-MB-468. In words: MTT cell viability assay. As to conditions: for effect of inhibitor on YC-1-induced inhibition of cell viability: inhibitor pretreatment, then 3 μM YC-1 for 6 h. The procedure:
(A) Cells were treated with indicated concentration of YC-1 for 6, 24, and 48 h. Cell viability was determined by MTT method. (B) MDA-MB-468 cells were treated with 3 μM YC-1 for 0, 6, and 12 h, and then stained with fluorescence diacetate (FDA) and propidium iodide (PI). Cell morphology was assessed by fluorescence microscopy with magnification ×20 (upper 3 rows) or ×40 (lowest row). (C) MDA-MB-468 cells were treated with 3 μM YC-1 for 24 h, cells were lysed and subjected to western blot analysis described in Materials and Methods. β-actin is a loading control. Blots were representative of results from three independent experiments. (D) Cells were treated with vehicle (DMSO, as control) or 3 μM YC-1 for 6 h. The cell cycles were analyzed by flow cytometry. (E) Cells were treated with indicated concentration of YC-1 and then performed with clonogenic assay.
Human breast cancer cells, MDA-MB-468, MDA-MB-157, MDA-MB-231, MDA-MB-453, and Hs578T, and immortalized mammary epithelial cell lines, 184A1 and MCF-10A, were obtained from American Type Culture Collection (Manassas, Va., USA). MDA-MB-468, MDA-MB-157, MDA-MB-231, and MDA-MB-453 were cultured in DMEM/F12 medium supplemented with 10% FBS, 100 U/ml penicillin, and 100 μg/ml streptomycin. Hs578T was cultured in RPMI 1640 medium containing 10% FBS, 2 mM L-glutamine, 100 U/ml penicillin, and 100 μg/ml streptomycin. 184A1 and MCF-10A were cultured in DMEM/F12 medium supplemented with 5% horse serum, 0.5 μg/ml hydrocortisone, 10 μg/ml insulin, 20 ng/ml epidermal growth factor, 0.1 μg/ml cholera enterotoxin, 2 mM L-glutamine, 100 U/ml penicillin, and 100 μg/ml streptomycin. All cells were maintained in a humidified incubator containing 5% CO2. For hypoxia treatment, cells were incubated in a chamber flushed with 1% 02, 5% CO2, and 94% N2 at 37° C.
Cell viability was measured by 3-(4,5-Dimethyl-2-thiazolyl)2,5-diphenyl-2H-tetrazolium bromide (MTT) assay.

Assay [3] has as its system c-Cbl. In words: Western blot of c-Cbl phosphorylation and expression. The conditions noted are these: pretreatment 1 h, then 3 μM YC-1 for 6 h. As for the experimental part: (A) c-Cbl knockdown MDA-MB-468 cells were treated with 3 μM YC-1 for 4 h. Cell were harvested for detection of protein expression. (B) Cells were treated with 3 μM YC-1 for indicated time. Cells were collected and c-Cbl phosphorylation was detected. […] (D) Cells were pretreated with MG-132 and followed by 3 μM YC-1 induction for indicated time. Cells were harvested and lysed for immunoprecipitation assay. The association between c-Cbl and EZH2 were determined by western blotting analysis and probed with anti-EZH2 or anti-c-Cbl antibody. Membranes were stripped and reprobed with anti-c-Cbl or anti-EZH2 antibody to check the input. […] Then cells were collected and lysate protein was subjected for the detection of the c-Cbl-EZH2 complexes. Cells were lysed in PBS containing proteinase inhibitor and phosphatase inhibitors and sonication. Protein concentration was measured using the Bio-Rad protein assay kit (Bio-Rad Laboratories, Hercules, Calif., USA). Lysate protein was separated by electrophoresis of SDS-PAGE and transferred to Immobilon P membrane (EMD Millipore). The membranes were incubated with appropriate primary antibodies and horseradish peroxidase-conjugated secondary antibodies (EMD Millipore). The signaling was visualized using Chemiluminescence substrate kit (EMD Millipore) and collected by the Luminesence image analyzer, LAS4000 (Fuji Photo Film Co., Tokyo, Japan). The band intensities were analyzed and quantified by the Multi Gauge software (Fuji Photo Film).

The test system of assay [4] is EZH2. In words: EZH2 ubiquitination assay. As to conditions: inhibitor pretreatment, then 3 μM YC-1. The procedure:
(A) Cells were pretreated with cyclohexamide (30 μM) for 1 h and followed by induction with vehicle (DMSO) or YC-1 (3 μM) for indicated time. Cells were harvested for detection of protein expression. (B)(C) Cells were incubated with 3 μM YC-1 for 6 h in the presence of vehicle, 3 μM MG-132 or 30 μM NH4Cl. Cells were harvested for detection of protein expression (B) or cell viability assay (C). The levels of protein expression were quantitated and shown under blots. (D) After treatment of 3 μM YC-1 for indicated time, cells were harvested and lysed for immunoprecipitation and western blot analysis described in Materials and Methods.
Cells were lysed with MLB buffer (25 mM HEPES, pH 7.5, 150 mM NaCl, 1% Igepal CA-630, 10 mM MgCl2, 1 mM EDTA, 2% glycerol, 1 mM Na3VO4, 1 mM NaF, 1 mM PMSF, 10 μg/ml of leupeptin, aprotinin, and pepstatin A). After sonication, cell lysates were centrifugated at 12,000×g for 10 min at 4° C. Supernatants were incubated with anti-EZH2 antibody (BD Biosciences) and protein A Sepharose beads (GE Health Care) overnight at 4° C. After washing with MLB buffer, precipitated proteins were boiled in 1× Laemmli sample buffer and then separated with SDS-PAGE. The ubiquitination levels of EZH2 were recognized by using anti-Ubiquitn monoclonal antibody.

Assay [5] has as its system EZH2-c-Cbl-ERK. The assay can be described thus: Co-immunoprecipitation of c-Cbl and EZH2. As to conditions: PD98059 10 μM with MG-132, then 2 h 3 μM YC-1. The procedure:
(A) c-Cbl knockdown MDA-MB-468 cells were treated with 3 μM YC-1 for 4 h. Cell were harvested for detection of protein expression. (B) Cells were treated with 3 μM YC-1 for indicated time. Cells were collected and c-Cbl phosphorylation was detected. (C) Cells were pretreated with MG-132 (3 μM) or NH4Cl (30 μM) for 1 h followed by 3 μM YC-1 induction for 6 h. (D) Cells were pretreated with MG-132 and followed by 3 μM YC-1 induction for indicated time. Cells were harvested and lysed for immunoprecipitation assay. The association between c-Cbl and EZH2 were determined by western blotting analysis and probed with anti-EZH2 or anti-c-Cbl antibody. Membranes were stripped and reprobed with anti-c-Cbl or anti-EZH2 antibody to check the input. (E) Cells were preincubated with or without PD98059 (10 μM) in the presence of MG-132 for 1 h prior to 2 h-treatment of 3 μM YC-1. Then cells were collected and lysate protein was subjected for the detection of the c-Cbl-EZH2 complexes.
Cells were lysed with RIPA buffer (50 mM Tris-C1, pH 7.5, 1% Igepal CA-630, 150 mM NaCl, 1 mM EDTA, 1 mM Na3VO4, 1 mM NaF, 1 mM PMSF, 10 μg/ml of leupeptin, aprotinin, and pepstatin A) for 30 min at 4° C. One milligram of cell lysate was incubated with anti-EZH2 or anti-c-Cbl antibody and protein A-Sepharose beads, then gently rotated at 4° C. overnight. […]

For the compound `CC(C)=CCC/C(C)=C/CC/C(C)=C/CSc1ccccc1C(=O)O` [farnyesyl thiosalicylic acid], in assay [1], the “effect of inhibitor on YC-1-induced EZH2 inhibition” value is listed as “had no effect”.

Consider `O=c1onc2cnc3ccccc3n12` [ODQ], for which the “effect of inhibitor on YC-1-induced inhibition of cell viability” value (shortened to “effect of inhibitor … of cell viability”) in assay [2] is given as “failed to have effects”. Besides, the “effect of inhibitor on YC-1-induced EZH2 inhibition” value in assay [1] is “failed to have effects”.

Consider `O=c1onc2n1-c1cc(Br)ccc1OC2` [NS2028], for which the “effect of inhibitor … of cell viability” value in assay [2] is listed as “failed to have effects”. Also, the “effect of inhibitor on YC-1-induced EZH2 inhibition” value in assay [1] is reported as “failed to have effects”.

For the compound `Cl.N` [NH4Cl, reference compound], in assay [1], the “effect of inhibitor on YC-1-induced EZH2 inhibition” value is given as “not”. Moreover, the “effect of inhibitor on YC-1-induced inhibition of c-Cbl” value in assay [3] was “not”.

On to `CNC(=O)c1cc(Oc2ccc(NC(=O)Nc3ccc(Cl)c(C(F)(F)F)c3)cc2)ccn1` [Bay-43-9006], for which the “effect of inhibitor … of cell viability” value in assay [2] is given as “attenuated”. Further, the “effect of inhibitor on YC-1-induced EZH2 inhibition” value in assay [1] is “attenuated”. Moreover, in assay [4], the “effect of inhibitor on YC-1-induced EZH2 ubiquitination” value is “significantly suppressed”.

For `CCCC[C@@H](C)/C=C(C)/C=C(\C)C(=O)NC1=C[C@@](O)(/C=C/C=C/C=C/C(=O)NC2=C(O)CCC2=O)[C@@H]2O[C@@H]2C1=O` [manumycin A], the “effect of inhibitor on YC-1-induced EZH2 inhibition” value in assay [1] was “failed to influent”.

For `COC(=O)[C@@]1(OC)C[C@H]2O[C@]1(C)n1c3ccccc3c3c4c(c5c6ccccc6n2c5c31)C(=O)N(C)C4` [KT5823], the “effect of inhibitor … of cell viability” value in assay [2] is given as “failed to have effects”. The “effect of inhibitor on YC-1-induced EZH2 inhibition” value in assay [1] is “failed to have effects”.

As to `COc1cc2ncnc(Nc3ccc(Oc4ccccc4)cc3)c2cc1OC` [SrcI], in assay [2], the “effect of inhibitor … of cell viability” value is on record as “attenuated”. Besides, in assay [1], the “effect of inhibitor on YC-1-induced EZH2 inhibition” value was “attenuated”. Moreover, the “effect of inhibitor on YC-1-induced EZH2 ubiquitination” value in assay [4] is “significantly suppressed”.

As for `COc1cc2ncnc(Nc3cccc(Cl)c3)c2cc1OC` [AG1478], the “effect of inhibitor on YC-1-induced EZH2 inhibition” value in assay [1] is recorded as “not affected”. Further, in assay [4], the “effect of inhibitor on YC-1-induced EZH2 ubiquitination” value is on record as “not”.

For the compound `Nc1nccc2c1ncn2[C@@H]1C=C(CO)[C@@H](O)[C@H]1O` [DZNep, 3-deazaneplanocin A], the “activation of apoptosis / cell viability” value in assay [2] (DZNep, 24 h, ten folds of concentration higher than YC-1) was “failed to inhibit EZH2 and activate apoptosis”. Moreover, the EZH2 inhibition result in assay [1] (DZNep 3, 10, 30 μM, 24 h, ten folds of concentration higher than YC-1) was “failed to inhibit EZH2”.

On to `CC[C@H](CO)Nc1nc(NCc2ccccc2)c2ncn(C(C)C)c2n1` [roscovitine], for which the “effect of inhibitor … of cell viability” value in assay [2] is “failed to modulate”. Also, the “effect of inhibitor on YC-1-induced EZH2 inhibition” value in assay [1] is “failed to modulate”.

Take `COc1cccc(-c2cc(=O)c3ccccc3o2)c1N` [PD98059]: the “effect of inhibitor … of cell viability” value in assay [2] was “almost completely abolished”. Also, the “effect of inhibitor on YC-1-induced EZH2 inhibition” value in assay [1] was “almost completely abolished”. In addition, in assay [4], the “effect of inhibitor on YC-1-induced EZH2 ubiquitination” value is recorded as “could be blocked”. For the same compound, the “effect of inhibitor on EZH2-c-Cbl-ERK complex” value in assay [5] is “could be disrupted”.

`CC(C)C[C@@H](C=O)NC(=O)[C@H](CC(C)C)NC(=O)[C@H](CC(C)C)NC(=O)OCc1ccccc1` [MG-132] (Cbz-Leu-Leu-Leu-aldehyde): in assay [2], the “effect of inhibitor … of cell viability” value is “reversed the YC-1-induced inhibition of cell viability”. The “effect of inhibitor on YC-1-induced EZH2 inhibition” value in assay [1] is on record as “significantly prevented EZH2 degradation”. The “effect of inhibitor on YC-1-induced inhibition of c-Cbl” value in assay [3] is given as “could be reversed”.

As to `O=c1c(-c2ccc(O)cc2)coc2cc(O)cc(O)c12` [genistein], the “effect of inhibitor … of cell viability” value in assay [2] is “attenuated”. Further, the “effect of inhibitor on YC-1-induced EZH2 inhibition” value in assay [1] is recorded as “attenuated”. Further, the “effect of inhibitor on YC-1-induced EZH2 ubiquitination” value in assay [4] is reported as “significantly suppressed”.
